pIC50: −log10 of the molar value. Converted amounts (≈) assume the structure as drawn.
Experiments:
Type in all cases: cell-based
T. vaginalis = assay: Trichomonas resorufin assay; conditions: for pIC50: Trichomonas vaginalis, read-out: IC50 T. vaginalis; for T. vaginalis Selectivity Indices, Group: SI, IC50 (μM)/IC50 (μM), HEK293 cytotoxicity
[1] = test system: Enterococcus faecalis (ATCC 51299); assay: Antibacterial MIC, broth microdilution (CLSI); conditions: for E. faecalis Selectivity Indices, Group: SI, IC50 (μM)/MIC80 (μM), HEK293 cytotoxicity; for MIC80: Enterococcus faecalis, ATCC51299, read-out: MIC80 E. faecalis
[2] = test system: Staphylococcus aureus (ATCC 43300); assay: Antibacterial MIC, broth microdilution (CLSI); conditions: for S. aureus Selectivity Indices, Group: SI, IC50 (μM)/MIC80 (μM), HEK293 cytotoxicity; for MIC80: Staphylococcus aureus, ATCC43300, read-out: MIC80 S. aureus
[3] = test system: Escherichia coli (ATCC 25922); assay: Antibacterial MIC, broth microdilution (CLSI); conditions: Escherichia coli, ATCC25922; read-out: MIC80 E. coli

Structure (SMILES)	pIC50 (T. vaginalis)	MIC80 [1]	MIC80 [2]	MIC80 [3]	other results
CCCCCCCCCCCCCCCCCC[N+](C)(C)CCNC(=O)c1cc(NC(=O)c2cc(NC(=O)c3ccc(/C=C/c4cnc5ccccc5c4)cc3)cn2C)cn1C [Ic17, (E)-N,N-dimethyl-N-(2-(1-methyl-4-(1-methyl-4-(4-(2-(quinolin-3-yl)vinyl)benzamido)-1H-pyrrole-2-carboxamido)-1H-pyrrole-2-carboxamido)ethyl)octadecan-1-aminium]	< 4.30	–	–	–	–
Cn1cc(NC(=O)c2cc(NC(=O)c3ccc(/C=C/c4ccc(C(F)(F)F)cc4)cc3)cn2C)cc1C(=O)NCCC(=N)N [Ref-6, reference compound]	–	–	–	–	E. faecalis Selectivity Indices, Group ([1]; Alkyl Amidines and NH Pyrroles): A (Group A: SI < 3); S. aureus Selectivity Indices, Group ([2]; Alkyl Amidines and NH Pyrroles): A (Group A: SI < 3); T. vaginalis Selectivity Indices, Group (T. vaginalis; Alkyl Amidines and NH Pyrroles): A (Group A: SI < 8)
CN(C)CCNC(=O)c1cc(NC(=O)c2cc(NC(=O)c3ccc(/C=C/c4cnc5ccccc5c4)cc3)cn2C)cn1C [Ref-7, (E)-N-(2-(dimethylamino)ethyl)-1-methyl-4-(1-methyl-4-(4-(2-(quinolin-3-yl)vinyl)benzamido)-1H-pyrrole-2-carboxamido)-1H-pyrrole-2-carboxamide, reference compound]	–	–	–	–	E. faecalis Selectivity Indices, Group ([1]; Alkyl Amidines and NH Pyrroles): A (Group A: SI < 3); E. faecalis Selectivity Indices, Group ([1]; Quaternary ammoniums): A (Group A: SI < 0.7); S. aureus Selectivity Indices, Group ([2]; Alkyl Amidines and NH Pyrroles): A (Group A: SI < 3); S. aureus Selectivity Indices, Group ([2]; Quaternary ammoniums): A (Group A: SI < 2); T. vaginalis Selectivity Indices, Group (T. vaginalis; Alkyl Amidines and NH Pyrroles): A (Group A: SI < 8); T. vaginalis Selectivity Indices, Group (T. vaginalis; Quaternary ammoniums): A (Group A: SI < 0.8)
Cn1cc(NC(=O)c2ccc(/C=C/c3cnc4ccccc4c3)cc2)cc1C(=O)Nc1cc(C(=O)N2CCCCC2)n(C)c1 [IVb1, (E)-1-methyl-N-(1-methyl-5-(piperidine-1-carbonyl)-1H-pyrrol-3-yl)-4-(4-(2-(quinolin-3-yl)vinyl)benzamido)-1H-pyrrole-2-carboxamide]	4.30 to 5.30	> 100 µM	25 to 100 µM (≈ 14.7 to 58.7 µg/mL)	> 100 µM	–
CCNC(=O)c1cc(NC(=O)c2cc(NC(=O)c3ccc(/C=C/c4cnc5ccccc5c4)cc3)cn2C)cn1C [IVa6, (E)-N-ethyl-1-methyl-4-(1-methyl-4-(4-(2-(quinolin-3-yl)vinyl)benzamido)-1H-pyrrole-2-carboxamido)-1H-pyrrole-2-carboxamide]	5.30 to 6.00	< 5 µM	< 5 µM	> 100 µM	E. faecalis Selectivity Indices, Group ([1]; Amides): B (Group B: 0.4 < SI <= 1.5); T. vaginalis Selectivity Indices, Group (T. vaginalis; Amides): B (Group B: 0.25 < SI <= 0.5)
C/N=C(\CCNC(=O)c1cc(NC(=O)c2cc(NC(=O)c3ccc(/C=C/c4ccc(OC)cc4)nc3)cn2C)cn1C)NC [Ia54, 6-((E)-4-methoxystyryl)-N-(1-methyl-5-((1-methyl-5-(((E)-3-(methylamino)-3-(methylimino)propyl)carbamoyl)-1H-pyrrol-3-yl)carbamoyl)-1H-pyrrol-3-yl)nicotinamide]	–	5 to 25 µM (≈ 2.98 to 14.9 µg/mL)	5 to 25 µM (≈ 2.98 to 14.9 µg/mL)	> 100 µM	–
COCCOCCOCC[N+](C)(C)CCNC(=O)c1cc(NC(=O)c2cc(NC(=O)c3ccc(/C=C/c4cnc5ccccc5c4)cc3)cn2C)cn1C [Ic19, (E)-2-(2-(2-methoxyethoxy)ethoxy)-N,N-dimethyl-N-(2-(1-methyl-4-(1-methyl-4-(4-(2-(quinolin-3-yl)vinyl)benzamido)-1H-pyrrole-2-carboxamido)-1H-pyrrole-2-carboxamido)ethyl)ethan-1-aminium]	–	5 to 25 µM	< 5 µM	> 100 µM	–
[H]/N=C(\CCNC(=O)c1cc(NC(=O)c2cc(NC(=O)c3ccc(C=Cc4ccc(N(C)C)cc4)nc3)cn2C)cn1C)NCCN1CCSCC1 [Ia52, (E)-6-(4-(dimethylamino)styryl)-N-(5-((5-((3-imino-3-((2-thiomorpholinoethyl)amino)propyl)carbamoyl)-1-methyl-1H-pyrrol-3-yl)carbamoyl)-1-methyl-1H-pyrrol-3-yl)nicotinamide]	–	> 100 µM	5 to 25 µM (≈ 3.55 to 17.8 µg/mL)	> 100 µM	–

Reference: US20250313546A1, “NUCLEIC ACID BINDERS” (UNIVERSITY OF STRATHCLYDE, priority 2022, published 2025)
